The values below come from patent publication US20240156800A1, “EP300 DEGRADER AND USES THEREOF IN NEUROBLASTOMA” (DANA-FARBER CANCER INSTITUTE, INC., priority 2021, published 2024).

Entries after “also recorded” stand apart in the source; their conditions may differ.

Data set [1] in a line: Toxicity study in Balb/c Crbn ILE391VAL humanized knockin mice. In kind it is in vivo. How it is done: For toxicity studies, four female CD1 mice (Charles River Laboratories) were injected intraperitoneally (IP) with single doses of 10 mg/Kg (R,S)-JQAD1 solubilized in 10% hydroxypropyl β-cyclodextrin (Sigma-Aldrich®) in sterile water. Following injection, blood concentration of (R,S)-JQAD1 was measured by serial measurements of animal serum at time points out to 24 h, by liquid chromatography with tandem mass spectrometry (LC-MS/MS) analysis. Pharmacokinetics were performed at ChemPartner in Shanghai, China, using LC-MS/MS method and pharmacokinetics parameters (Tmax, Cmax, T1/2, AUC, etc.) calculated with WinNonlin® V 6.2 statistics software (Pharsight Corporation) using a noncompartmental model. For maximally tolerated dose (MTD) testing, six female CD1 mice were treated with daily IP doses of (R,S)-JQAD1 at 10, 20, or 40 mg/kg. Animals were monitored for animal weight, grooming and behavior daily without noted effects. […] Animal weights, behavior and grooming were monitored daily, for a total of 21 days. At day 14, three mice per treatment group were sacrificed and tissues fixed for immunohistochemistry. Blood samples were obtained by retro-orbital puncture and blood analyzed at the Small Animal Imaging Facility at Beth Israel Deaconess Medical Center (Boston, MA), on a Hemavet® 9500FS (Drew Scientific) for blood counts, creatinine, AST, ALT, ALP, GGTP, and BUN measurements.

For a further data set, the target named is T1, EP300 (Homo sapiens, UniProt Q09472).
T1 construct: Cells growing in culture were lysed for whole cell lysates; endogenous in cells; host or cells: Kelly, NGP, SIMA, BE2C neuroblastoma cells; Kelly xenografts in NSG mice
The data set can be described thus: SILAC mass spectrometry of the nuclear proteome of Kelly cells (EP300). In kind it is cell-based. As to conditions: 500 nM, 24 h, nuclear extract, p=3.3×10^−5. How it is done:
Because JQAD1 interacted preferentially with both EP300 and CRBN, whether JQAD1 preferentially induces degradation of EP300 compared to CBP in MYCN-amplified neuroblastoma cells was examined. […] To further examine the specificity of JQAD1 for EP300, an analysis of the effects of JQAD1 in stable isotope labeling by amino acids in cell culture (SILAC)-labelled Kelly cells was performed (FIG. 3F). Kelly cells were cultured with SILAC media containing heavy or light-labelled arginine and lysine. Heavy labelled cells were treated with 500 nM JQAD1, and light-labelled cells treated with dimethyl sulfoxide (DMSO) for 24 h, prior to nuclear extraction and protein lysis. […] Protein abundance was then analyzed by mass spectrometry, to determine global changes in the nuclear proteome. […] To expand upon these findings, three NB cell lines, Kelly, NGP and SIMA, which have high levels of CRBN (e.g., protein or mRNA) (FIG. 8C), were treated with JQAD, and the effects on specific proteins were measured by western blotting. […] Peptides were detected, isolated, and fragmented to produce a tandem mass spectrum of specific fragment ions for each peptide. Peptide sequences and protein identity were determined by matching protein databases with the acquired fragmentation pattern by Sequest® (Thermo Fisher Scientific) (Eng et al. J. Am. Soc. Mass Spectrom. 5:976-89 (1994)). […]

Where [2] appears, read: 40 mg/Kg IP daily, after 14 days, p NS versus vehicle.

T1 sequence (Q09472 whole entry): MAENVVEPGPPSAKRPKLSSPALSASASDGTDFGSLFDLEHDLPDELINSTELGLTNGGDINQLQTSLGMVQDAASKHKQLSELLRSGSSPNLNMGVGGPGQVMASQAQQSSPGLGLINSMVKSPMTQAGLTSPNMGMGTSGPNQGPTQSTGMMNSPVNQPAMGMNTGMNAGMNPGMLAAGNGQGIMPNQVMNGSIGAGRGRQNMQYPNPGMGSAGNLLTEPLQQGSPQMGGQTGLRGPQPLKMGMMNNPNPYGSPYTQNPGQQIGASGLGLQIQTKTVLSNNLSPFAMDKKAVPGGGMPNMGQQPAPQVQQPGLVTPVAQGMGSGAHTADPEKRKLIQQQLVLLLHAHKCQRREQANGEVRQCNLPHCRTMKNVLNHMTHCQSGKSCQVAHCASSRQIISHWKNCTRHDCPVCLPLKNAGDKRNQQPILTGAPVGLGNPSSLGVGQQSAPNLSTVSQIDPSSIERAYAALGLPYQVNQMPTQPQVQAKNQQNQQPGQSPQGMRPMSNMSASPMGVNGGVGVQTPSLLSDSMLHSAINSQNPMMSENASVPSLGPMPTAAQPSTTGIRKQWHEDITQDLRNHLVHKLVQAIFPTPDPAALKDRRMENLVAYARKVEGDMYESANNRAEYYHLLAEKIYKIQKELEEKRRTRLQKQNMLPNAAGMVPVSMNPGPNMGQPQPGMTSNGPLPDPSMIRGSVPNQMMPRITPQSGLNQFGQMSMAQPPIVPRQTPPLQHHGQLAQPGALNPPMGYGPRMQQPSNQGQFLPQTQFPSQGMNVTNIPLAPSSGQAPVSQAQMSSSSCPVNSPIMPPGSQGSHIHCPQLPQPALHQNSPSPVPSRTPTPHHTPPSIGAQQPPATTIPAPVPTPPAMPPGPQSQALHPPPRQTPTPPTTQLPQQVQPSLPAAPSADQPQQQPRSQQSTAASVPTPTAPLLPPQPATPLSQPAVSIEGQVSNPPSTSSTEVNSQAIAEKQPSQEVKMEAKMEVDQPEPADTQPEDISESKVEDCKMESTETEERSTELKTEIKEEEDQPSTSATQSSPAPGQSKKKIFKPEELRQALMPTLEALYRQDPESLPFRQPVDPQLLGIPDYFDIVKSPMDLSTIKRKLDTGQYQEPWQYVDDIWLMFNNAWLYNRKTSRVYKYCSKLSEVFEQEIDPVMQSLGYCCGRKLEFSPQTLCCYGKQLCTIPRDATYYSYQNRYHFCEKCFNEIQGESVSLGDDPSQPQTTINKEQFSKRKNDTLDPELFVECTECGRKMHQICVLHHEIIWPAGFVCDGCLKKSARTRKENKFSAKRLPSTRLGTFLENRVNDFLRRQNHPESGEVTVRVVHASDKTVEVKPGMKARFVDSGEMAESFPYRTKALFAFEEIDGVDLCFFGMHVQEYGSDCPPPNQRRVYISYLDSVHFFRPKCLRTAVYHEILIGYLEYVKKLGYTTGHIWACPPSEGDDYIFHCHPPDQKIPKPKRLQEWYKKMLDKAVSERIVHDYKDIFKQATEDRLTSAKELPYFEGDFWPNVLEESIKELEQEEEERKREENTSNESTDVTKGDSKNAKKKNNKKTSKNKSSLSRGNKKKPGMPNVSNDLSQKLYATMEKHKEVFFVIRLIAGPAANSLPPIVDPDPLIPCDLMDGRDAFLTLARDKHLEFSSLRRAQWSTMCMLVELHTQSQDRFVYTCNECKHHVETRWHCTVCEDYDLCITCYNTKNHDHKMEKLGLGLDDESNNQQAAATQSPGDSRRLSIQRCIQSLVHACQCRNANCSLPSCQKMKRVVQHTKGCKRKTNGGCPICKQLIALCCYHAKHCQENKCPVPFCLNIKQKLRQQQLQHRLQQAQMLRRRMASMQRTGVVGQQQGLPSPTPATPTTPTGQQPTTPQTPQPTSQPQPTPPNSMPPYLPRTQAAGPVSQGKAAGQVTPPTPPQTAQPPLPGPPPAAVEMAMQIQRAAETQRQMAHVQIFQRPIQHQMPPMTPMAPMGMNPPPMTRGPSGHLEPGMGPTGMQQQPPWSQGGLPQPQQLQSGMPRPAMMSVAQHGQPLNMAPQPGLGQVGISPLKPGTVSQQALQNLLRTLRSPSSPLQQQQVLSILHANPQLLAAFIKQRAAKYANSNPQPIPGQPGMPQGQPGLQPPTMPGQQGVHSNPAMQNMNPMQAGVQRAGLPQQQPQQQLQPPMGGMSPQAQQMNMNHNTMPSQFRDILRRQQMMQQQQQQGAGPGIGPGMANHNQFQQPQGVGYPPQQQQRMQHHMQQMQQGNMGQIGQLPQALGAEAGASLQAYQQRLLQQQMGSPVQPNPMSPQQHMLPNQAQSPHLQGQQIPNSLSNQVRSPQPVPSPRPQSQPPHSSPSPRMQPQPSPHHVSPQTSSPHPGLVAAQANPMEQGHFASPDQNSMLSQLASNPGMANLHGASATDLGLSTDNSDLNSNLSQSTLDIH

Regarding `C[C@H](N(Cc1ccc(F)cc1)C(=O)CN1C(=O)O[C@@]2(CCc3cc(NC(=O)CCCCCCCCCCCNc4ccc5c(c4)C(=O)N(C4CCC(=O)NC4=O)C5=O)ccc32)C1=O)C(F)(F)F` (stereo partly drawn) [JQAD1, 12-((2-(2,6-dioxopiperidin-3-yl)-1,3-dioxoisoindolin-5-yl)amino)-N-((R)-3′-(2-((4-fluorobenzyl)((S)-1,1,1-trifluoropropan-2-yl)amino)-2-oxoethyl)-2′,4′-dioxo-2,3-dihydrospiro[indene-1,5′-oxazolidin]-5-yl)dodecanamide], the tolerability result in data set [1] (40 mg/Kg IP daily for 21 days, measurements after 14 days) is “well tolerated, with no effects on grooming, behavior, weight, peripheral blood counts, liver function tests or creatinine measurements”. Also, the “tissue pathology (hematoxylin and eosin)” value in data set [1] (40 mg/Kg IP daily, 14 days, blinded pathologist) is on record as “no gross changes in tissue architecture or immune infiltrate; also recorded: no histologic or biochemical evidence of toxicity in the liver”. In data set [1] (setting [2]), the ALP is on record as 51, the ALT came to 54, the AST was 37 and the Albumin amounted to 3.2. In data set [1] (setting [2]), the Basophils came out at 0.02 K/μL, the Creatinine is listed as 0.17, the Eosinophils stood at 0.10 and the GGTP was found to be 5. In addition, in data set [1] (setting [2]), the Hematocrit is 41.2%, the Hemoglobin is 13.35, the Lymphocytes is reported as 1.80 and the Monocytes came to 0.35 K/μL. In data set [1] (setting [2]), the Neutrophils is recorded as 1.2, the Platelet is recorded as 528 K/μL and the WBC turned out to be 3.46 K/μL. Moreover, in data set [1] (twice daily 40 mg/Kg IP for 14 days), the “toxicity (blood counts, liver and kidney function tests, weight, grooming)” value is on record as “no toxicity was observed”. The EP300 protein abundance entry on EP300 is “significantly decreased”.
